According to patent publication US9980928B2, “Hydroxy aliphatic substituted phenyl aminoalkyl ether derivatives” (PROUS INSTITUTE FOR BIOMEDICAL RESEARCH, S.A., priority 2012, dated 2018):

How the values were obtained:
C57BL6 mice = assay: Maximum tolerated doses, 5 days oral administration; assay type: in vivo; details: mouse, doses up to 100 mg/kg/day during 5 days
Description: An alternative evaluation of the toxicity of the compounds of the present invention may be conducted using the method described in Branch, D. R. Exp Toxicol Pathol 2009, 61(2): 133-6 and Emmenegger, U. et al. Neoplasia 2011, 13(1): 40-8. […]

[1] = tested on: fmr1 KO mice and wild type mice; assay: Social behavior test in Fragile X (fmr1 KO) mouse model; assay type: in vivo; details: 30 mg/kg i.p. acute
Protocol: FIG. 4A plots the time (s) that the test mouse devotes to exploring two cylinders: a first cylinder containing a familiar genotype-matched juvenile stimulus mouse and a second cylinder containing a novel stimulus mouse and the total time of exploration (both cylinders) during a 10 min session. FIG. 4B Plots the percentage of time spent near the two cylinders during the 10 min session. FIG. 4C plots the Discrimination index (time exploring the novel stimulus−time exploring the familiar stimulus/total time of exploration×100).
N=10-12 mice per group. Mice had received an acute i.p. injection of saline (WT 1st bar, fmr1 KO 3rd bar) or 30 mg/kg Example 2 (Wild Type 2nd bar, fmr1 KO 4th bar) 24 h before the session. Data are expressed as mean±S.E.M. Two way ANOVA Treatment effect Φ p<0.05, Genotype x Treatment interaction p<0.05, Bonferroni as post hoc ***p<0.001, **p<0.01, *p<0.05.
Example 2 effects on social disability in a model of Fmr1 KO was performed. Social behavior was examined on an open-field that consisted of an arena (70 cm long×70 cm wide×30 cm high) made of Plexiglas. An overhead camera connected to the video-tracking software SMART (Panlab, Spain) was used to monitor the animal's behavior. The experimental design included three sessions:
1) Habituation session Animals were habituated for 10 min to an arena containing two empty transparent cylinders (30 cm diameter×40 cm high) made of Plexiglas. The cylinders were perforated to have interaction points and were located on two corners of the open field. Time exploring the cylinders was registered along the 10 min duration. After the habituation session mice received an acute injection of either saline or Example 2 (30 mg/kg i.p.) and replaced on their cages. 2) Social interaction 24 h later, animals were replaced to the arena containing the two cylinders, one cylinder was empty and the other one contained a stranger individual (stimulus). The time exploring the two cylinders was registered for 10 minutes. The stimulus individual was always a juvenile mouse (less than two months of age), to avoid the group hierarchy and aggressiveness towards non familiar individuals that show adult male mice. In addition, the stimulus individual was genotype matched with the testing mouse. The position of the stimulus individual was counterbalanced between animals. After the sociability session mice received an acute injection of either saline or Example 2 (30 mg/kg i.p.). 3) Social recognition 24 h later, animals were replaced to the arena containing the two cylinders, one cylinder contained the same stimulus individual presented during the social interaction session (familiar) and the other contained a novel stimulus individual. Both stimuli were juvenile animals and genotype matched. The position of the familiar stimulus remained the same as it was in the social interaction session, and counterbalanced between animals. Once the subject mice finished the test they remained individually housed in a separate cage until the other cage partner finalized the test, to avoid exposition to olfactory cues from stimuli mice. In all cases, those mice from the same cage were never exposed to the same stimuli, either familiar or novel. The time exploring the two cylinders was registered for 10 minutes. The discrimination index was calculated as time exploring the novel stimulus mouse−time exploring the familiar stimulus mouse/total time of exploration×100. The arena and cylinders were deeply cleaned between animals to avoid olfactory cues. All measures of exploration were manually registered by the experimenter blind to genotype and treatment. Exploratory behavior was defined as the animal directing its nose towards the cylinder at a distance of <2 cm. A proximal zone of 14 cm from the cylinders was defined as interaction zone and the time spent in these zones was registered as index of exploratory behavior.

p-PLCγ1 = assay: Western blot of p-PLCγ1 in mouse brain after i.p. administration; assay type: in vivo, mice; details: 30 mg/kg i.p., 1 hour after administration
Protocol: Acute biochemical neuronal changes in neurotrophin and synaptic plasticity signaling after the administration of the compounds to be tested may be studied by Western blot assessment of ERK, Akt, phospholipase C (PLC), Trk-B, […] and CAMK II phosphorylation assays in the hippocampus, striatum and cortex at 1 hour post-administration.
Two groups of animals were used: C57BL control mice and mice treated by i.p. administration of a dose of 30 mg/kg of the compound to be tested diluted in saline solution or control saline (n=6 per group).
Animals were sacrificed by cervical dislocation at the corresponding time and different brain regions were dissected (frontal cortex, striatum, hippocampus, cerebellum) after […] of having administered the compounds. […] The supernatants were collected and the protein concentration was measured using the Dc protein assay kit (Bio-Rad, Hercules, Calif., USA) read in a 96-well plate. […]
After primary antibody incubation, membranes were washed with TBS-T and incubated for 1 hour at room temperature with the appropriate horseradish peroxidase-conjugated secondary antibody (1:2000; Promega, Madison, Wis., USA), and the reaction was finally visualized with the Western Blotting Luminol Reagent (Santa Cruz Biotechnology, Santa Cruz, Calif., USA). Western blot replicates were scanned and quantified using a computer-assisted densitometric analysis.

## CNCCC(Oc1ccc(CCO)cc1)c1ccccc1.Cl (single isomer, unassigned) [Example 2, 2-[4-[3-(Methylamino)-1-phenylpropoxy]phenyl]ethanol hydrochloride]
C57BL6 mice
  oral toxicity, toxic effect: did not show any toxic effect
[1]; WT and fmr1 KO mice
  time exploring the familiar stimulus (FIG. 4A): significantly reduced
[1]; fmr1 KO mice
  social behavior alteration / social abnormalities: completely restored
  time exploring the novel stimulus mouse: rose at levels comparable to those detected in wild type animals
  time spent near the familiar individual (FIG. 4B): reducing
  time spent near the novel stimulus (FIG. 4B): significantly increased
[1]; wild type mice
  social recognition: did not modify
p-PLCγ1
  p-PLCγ1 change: No significant change
